Measurements as given in ChEMBL document CHEMBL1158855, “Study on cytotoxic oxygenated desmosterols isolated from the red alga Galaxaura marginata” (1997).
Converted amounts (≈) assume the structure as drawn.

Key:
Type in all cases: functional
Conditions in all cases: read-out: ED50 (the source's name)
P388 = experiment: Cytotoxicity against mouse P388 cells by MTT assay
KB = experiment: Cytotoxicity against human KB cells by MTT assay
A549 = experiment: Cytotoxicity against human A549 cells by MTT assay
HT-29 = experiment: Cytotoxicity against human HT29 cells by MTT assay

## C=C(C)C(CC[C@@H](C)[C@H]1CC[C@H]2[C@@H]3C[C@@H](O)C4=CC(=O)CC[C@]4(C)[C@H]3CC[C@]12C)OO (stereo not given in full)
P388
  EC50: 0.22 mg/L (≈ 0.511 µM)
KB
  EC50: 0.79 mg/L (≈ 1.83 µM)
A549
  EC50: 0.58 mg/L (≈ 1.35 µM)
HT-29
  EC50: 0.47 mg/L (≈ 1.09 µM)

## C=C(C)C(=O)CC[C@@H](C)[C@H]1CC[C@H]2[C@@H]3CC(=O)C4=CC(=O)CC[C@]4(C)[C@H]3CC[C@]12C
P388
  EC50: 0.11 mg/L (≈ 0.268 µM)
KB
  EC50: 0.24 mg/L (≈ 0.585 µM)
A549
  EC50: 0.27 mg/L (≈ 0.658 µM)
HT-29
  EC50: 0.3 mg/L (≈ 0.731 µM)

## C=C(C)C(O)CC[C@@H](C)[C@H]1CC[C@H]2[C@@H]3C[C@@H](O)C4=CC(=O)CC[C@]4(C)[C@H]3CC[C@]12C (stereo not given in full)
P388
  EC50: 0.19 mg/L (≈ 0.458 µM)
KB
  EC50: 0.83 mg/L (≈ 2 µM)
A549
  EC50: 2.37 mg/L (≈ 5.72 µM)
HT-29
  EC50: 0.3 mg/L (≈ 0.724 µM)

## C[C@H](C/C=C/C(C)(C)OO)[C@H]1CC[C@H]2[C@@H]3C[C@@H](O)C4=CC(=O)CC[C@]4(C)[C@H]3CC[C@]12C
P388
  EC50: 0.28 mg/L (≈ 0.65 µM)
KB
  EC50: 0.4 mg/L (≈ 0.929 µM)
A549
  EC50: 1 mg/L (≈ 2.32 µM)
HT-29
  EC50: 0.63 mg/L (≈ 1.46 µM)

## C[C@H](C/C=C/C(C)(C)O)[C@H]1CC[C@H]2[C@@H]3C[C@@H](O)C4=CC(=O)CC[C@]4(C)[C@H]3CC[C@]12C
P388
  EC50: 0.14 mg/L (≈ 0.338 µM)
KB
  EC50: 0.45 mg/L (≈ 1.09 µM)
A549
  EC50: 1.54 mg/L (≈ 3.71 µM)
HT-29
  EC50: 0.55 mg/L (≈ 1.33 µM)
